Assay results published in patent US7074789B2, “Kinase inhibitors” (Amgen Inc., priority 1999, dated 2006).
Where two headings read alike, the source gives them in different places.

Columns and labels:
Format in all cases: biochemical
Zap-70 = biological target: T1, Zap-70 (Homo sapiens, UniProt P43403); assay: Kinase inhibition assay (33P transfer), Zap-70; conditions: read-out: Zap-1
T1 construct: Kinases are expressed as either kinase domains or full length constructs; made in house
T1 sequence (P43403 1-619): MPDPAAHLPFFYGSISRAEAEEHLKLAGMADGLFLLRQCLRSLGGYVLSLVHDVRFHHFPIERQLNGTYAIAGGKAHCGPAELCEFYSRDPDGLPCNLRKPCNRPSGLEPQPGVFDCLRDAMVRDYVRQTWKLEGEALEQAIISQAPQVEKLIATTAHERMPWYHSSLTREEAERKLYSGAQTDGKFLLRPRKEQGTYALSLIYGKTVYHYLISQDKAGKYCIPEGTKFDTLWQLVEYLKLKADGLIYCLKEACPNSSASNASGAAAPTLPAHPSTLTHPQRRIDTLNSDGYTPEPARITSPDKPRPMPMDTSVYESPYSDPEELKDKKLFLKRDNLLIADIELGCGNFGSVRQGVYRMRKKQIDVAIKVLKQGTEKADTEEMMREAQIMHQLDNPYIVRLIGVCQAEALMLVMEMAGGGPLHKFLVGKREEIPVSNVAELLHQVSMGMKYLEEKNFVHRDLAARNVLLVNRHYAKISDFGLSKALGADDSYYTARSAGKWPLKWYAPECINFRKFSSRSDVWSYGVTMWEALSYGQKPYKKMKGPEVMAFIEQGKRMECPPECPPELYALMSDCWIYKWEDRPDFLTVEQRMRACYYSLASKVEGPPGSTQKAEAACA
In short: (§1)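 Filterless plate radiometric format: immobilized poly(Glu,Tyr) 4:1 or poly(Arg,Ser) 3:1, 33P-labelled ATP, tagged recombinant kinase (some with regulatory partners). Incorporated label counted after phosphoric acid wash.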

EGFR = biological target: T2, EGFR (Homo sapiens, UniProt P00533); assay: Kinase inhibition assay (33P transfer), EGFR; conditions: Table 2, kinase inhibition class; read-out: EGFR-1
T2 construct: Kinases are expressed as either kinase domains or full length constructs; made in house
T2 sequence (P00533 25-1210, species assumed): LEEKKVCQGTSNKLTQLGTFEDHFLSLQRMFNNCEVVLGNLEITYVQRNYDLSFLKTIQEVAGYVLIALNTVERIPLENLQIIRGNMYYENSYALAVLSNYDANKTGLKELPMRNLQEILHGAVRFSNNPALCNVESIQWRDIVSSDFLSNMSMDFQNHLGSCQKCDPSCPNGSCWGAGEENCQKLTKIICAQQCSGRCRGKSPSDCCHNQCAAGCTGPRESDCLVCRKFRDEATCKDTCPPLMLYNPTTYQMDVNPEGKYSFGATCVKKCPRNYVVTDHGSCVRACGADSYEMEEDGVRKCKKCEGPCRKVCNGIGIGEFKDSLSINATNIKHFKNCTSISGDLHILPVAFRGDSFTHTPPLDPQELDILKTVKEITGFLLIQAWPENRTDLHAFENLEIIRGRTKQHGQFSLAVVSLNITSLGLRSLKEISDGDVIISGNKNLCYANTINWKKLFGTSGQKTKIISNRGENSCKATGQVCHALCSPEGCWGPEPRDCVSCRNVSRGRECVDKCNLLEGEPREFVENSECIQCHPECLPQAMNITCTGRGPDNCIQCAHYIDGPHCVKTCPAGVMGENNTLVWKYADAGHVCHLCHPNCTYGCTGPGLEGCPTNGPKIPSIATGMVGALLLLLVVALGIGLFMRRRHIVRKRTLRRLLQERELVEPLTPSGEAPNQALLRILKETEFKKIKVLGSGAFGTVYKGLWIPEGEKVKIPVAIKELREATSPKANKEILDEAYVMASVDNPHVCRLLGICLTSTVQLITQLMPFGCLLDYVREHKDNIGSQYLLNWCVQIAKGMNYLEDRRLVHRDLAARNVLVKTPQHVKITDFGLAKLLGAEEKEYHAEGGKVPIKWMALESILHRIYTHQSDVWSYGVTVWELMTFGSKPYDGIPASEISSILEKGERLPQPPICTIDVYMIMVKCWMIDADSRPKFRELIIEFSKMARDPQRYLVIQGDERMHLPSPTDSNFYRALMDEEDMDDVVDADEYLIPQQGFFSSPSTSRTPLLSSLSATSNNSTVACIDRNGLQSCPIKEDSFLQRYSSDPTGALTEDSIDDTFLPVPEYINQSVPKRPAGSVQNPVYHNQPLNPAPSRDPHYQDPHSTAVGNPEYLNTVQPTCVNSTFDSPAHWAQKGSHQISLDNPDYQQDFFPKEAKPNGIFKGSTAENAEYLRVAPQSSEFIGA
In short: (§2)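 IC50: inhibitor concentration lowering 33P incorporation into immobilised substrate by 50%. Label transferred from ATP to poly(Glu,Tyr) 4:1 or poly(Arg,Ser) 3:1 is measured after a 0.5% phosphoric acid wash by liquid scintillation.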

Lck = biological target: T3, Lck (Homo sapiens, UniProt P06239); assay: Kinase inhibition assay (33P transfer), Lck; conditions: read-out: Lck-1
T3 construct: Kinases are expressed as either kinase domains or full length constructs; made in house
T3 sequence (P06239 whole entry, species assumed, the tested form may be a part): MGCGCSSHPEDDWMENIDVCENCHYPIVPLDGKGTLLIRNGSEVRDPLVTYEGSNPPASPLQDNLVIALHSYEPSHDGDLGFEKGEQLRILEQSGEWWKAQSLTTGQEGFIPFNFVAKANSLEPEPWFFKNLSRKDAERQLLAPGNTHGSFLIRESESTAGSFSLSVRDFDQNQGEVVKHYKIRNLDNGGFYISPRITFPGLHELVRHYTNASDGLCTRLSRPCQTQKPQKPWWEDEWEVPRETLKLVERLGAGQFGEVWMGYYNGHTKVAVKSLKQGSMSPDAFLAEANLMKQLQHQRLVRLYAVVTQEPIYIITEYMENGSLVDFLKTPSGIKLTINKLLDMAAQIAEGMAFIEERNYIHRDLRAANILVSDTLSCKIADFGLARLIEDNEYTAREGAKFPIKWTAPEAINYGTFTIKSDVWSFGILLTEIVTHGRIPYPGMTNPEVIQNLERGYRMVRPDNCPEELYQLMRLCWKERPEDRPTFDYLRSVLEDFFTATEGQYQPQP
In short: as §1

AKT = biological target: T4, AKT (Homo sapiens, UniProt Q9Y243); assay: Kinase inhibition assay (33P transfer), AKT; conditions: Table 2, kinase inhibition class; read-out: AKT3-1
T4 construct: Kinases are expressed as either kinase domains or full length constructs; made in house
T4 sequence (Q9Y243 whole entry, the tested form may be a part): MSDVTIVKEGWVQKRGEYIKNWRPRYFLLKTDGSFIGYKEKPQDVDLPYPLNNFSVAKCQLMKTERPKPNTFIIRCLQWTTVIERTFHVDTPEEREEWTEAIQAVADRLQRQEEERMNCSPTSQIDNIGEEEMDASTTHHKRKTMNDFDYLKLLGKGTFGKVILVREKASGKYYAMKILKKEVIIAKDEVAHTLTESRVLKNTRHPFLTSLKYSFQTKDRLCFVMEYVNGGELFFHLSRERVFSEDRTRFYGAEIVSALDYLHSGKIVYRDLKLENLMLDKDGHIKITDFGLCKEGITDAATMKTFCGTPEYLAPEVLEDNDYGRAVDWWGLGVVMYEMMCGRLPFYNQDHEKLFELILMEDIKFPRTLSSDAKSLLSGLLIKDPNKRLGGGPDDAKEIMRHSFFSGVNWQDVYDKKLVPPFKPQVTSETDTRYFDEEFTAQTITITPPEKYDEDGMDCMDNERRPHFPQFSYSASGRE
In short: as §1

Kdr = biological target: T5, Kdr (Homo sapiens, UniProt P35968); assay: Kinase inhibition assay (33P transfer), Kdr; conditions: read-out: KDR-1
T5 construct: Kinases are expressed as either kinase domains or full length constructs; made in house
T5 sequence (P35968 20-1356, species assumed): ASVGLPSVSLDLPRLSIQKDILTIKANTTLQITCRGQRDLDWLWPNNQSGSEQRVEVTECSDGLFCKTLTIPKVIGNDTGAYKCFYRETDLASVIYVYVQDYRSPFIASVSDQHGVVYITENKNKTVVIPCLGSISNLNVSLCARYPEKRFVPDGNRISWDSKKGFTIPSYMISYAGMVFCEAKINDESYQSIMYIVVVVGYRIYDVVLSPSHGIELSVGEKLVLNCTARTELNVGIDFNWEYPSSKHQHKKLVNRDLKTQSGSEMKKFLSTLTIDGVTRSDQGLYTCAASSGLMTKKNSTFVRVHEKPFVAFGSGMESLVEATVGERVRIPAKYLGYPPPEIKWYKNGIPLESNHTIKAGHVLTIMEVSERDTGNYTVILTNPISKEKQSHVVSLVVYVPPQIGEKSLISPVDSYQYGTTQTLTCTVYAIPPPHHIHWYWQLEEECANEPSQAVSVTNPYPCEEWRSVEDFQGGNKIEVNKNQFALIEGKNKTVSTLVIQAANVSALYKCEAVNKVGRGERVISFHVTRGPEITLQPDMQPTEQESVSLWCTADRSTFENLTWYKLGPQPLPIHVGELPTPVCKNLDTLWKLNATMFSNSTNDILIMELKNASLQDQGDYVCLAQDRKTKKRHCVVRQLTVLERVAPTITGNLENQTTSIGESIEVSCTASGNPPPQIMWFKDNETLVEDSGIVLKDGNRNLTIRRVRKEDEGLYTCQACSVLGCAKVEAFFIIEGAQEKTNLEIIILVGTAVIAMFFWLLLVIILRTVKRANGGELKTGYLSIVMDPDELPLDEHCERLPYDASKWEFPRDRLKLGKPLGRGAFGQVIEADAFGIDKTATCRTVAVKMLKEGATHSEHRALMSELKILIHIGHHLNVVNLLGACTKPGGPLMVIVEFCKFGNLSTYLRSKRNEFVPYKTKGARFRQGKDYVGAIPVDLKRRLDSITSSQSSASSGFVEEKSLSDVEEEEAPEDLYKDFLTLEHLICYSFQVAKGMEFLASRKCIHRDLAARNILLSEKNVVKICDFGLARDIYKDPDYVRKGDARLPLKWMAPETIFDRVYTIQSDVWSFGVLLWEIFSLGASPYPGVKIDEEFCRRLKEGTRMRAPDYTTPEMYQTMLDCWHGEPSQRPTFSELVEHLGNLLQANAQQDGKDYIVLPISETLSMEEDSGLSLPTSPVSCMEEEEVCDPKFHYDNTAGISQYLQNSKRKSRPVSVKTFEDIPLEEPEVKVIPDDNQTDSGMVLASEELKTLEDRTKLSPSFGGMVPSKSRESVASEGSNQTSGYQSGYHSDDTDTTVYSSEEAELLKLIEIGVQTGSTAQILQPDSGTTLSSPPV
In short: as §1

c-Met = biological target: T6, c-Met (Homo sapiens, UniProt P08581); assay: Kinase inhibition assay (33P transfer), c-Met; conditions: Table 2, kinase inhibition class; read-out: Met-1
T6 construct: Kinases are expressed as either kinase domains or full length constructs; made in house
In short: as §2

Tek = biological target: T7, Tek (Homo sapiens, UniProt Q02763); assay: Kinase inhibition assay (33P transfer), Tek; conditions: read-out: Tek-1
T7 construct: Kinases are expressed as either kinase domains or full length constructs; made in house
T7 sequence (Q02763 23-1124, species assumed): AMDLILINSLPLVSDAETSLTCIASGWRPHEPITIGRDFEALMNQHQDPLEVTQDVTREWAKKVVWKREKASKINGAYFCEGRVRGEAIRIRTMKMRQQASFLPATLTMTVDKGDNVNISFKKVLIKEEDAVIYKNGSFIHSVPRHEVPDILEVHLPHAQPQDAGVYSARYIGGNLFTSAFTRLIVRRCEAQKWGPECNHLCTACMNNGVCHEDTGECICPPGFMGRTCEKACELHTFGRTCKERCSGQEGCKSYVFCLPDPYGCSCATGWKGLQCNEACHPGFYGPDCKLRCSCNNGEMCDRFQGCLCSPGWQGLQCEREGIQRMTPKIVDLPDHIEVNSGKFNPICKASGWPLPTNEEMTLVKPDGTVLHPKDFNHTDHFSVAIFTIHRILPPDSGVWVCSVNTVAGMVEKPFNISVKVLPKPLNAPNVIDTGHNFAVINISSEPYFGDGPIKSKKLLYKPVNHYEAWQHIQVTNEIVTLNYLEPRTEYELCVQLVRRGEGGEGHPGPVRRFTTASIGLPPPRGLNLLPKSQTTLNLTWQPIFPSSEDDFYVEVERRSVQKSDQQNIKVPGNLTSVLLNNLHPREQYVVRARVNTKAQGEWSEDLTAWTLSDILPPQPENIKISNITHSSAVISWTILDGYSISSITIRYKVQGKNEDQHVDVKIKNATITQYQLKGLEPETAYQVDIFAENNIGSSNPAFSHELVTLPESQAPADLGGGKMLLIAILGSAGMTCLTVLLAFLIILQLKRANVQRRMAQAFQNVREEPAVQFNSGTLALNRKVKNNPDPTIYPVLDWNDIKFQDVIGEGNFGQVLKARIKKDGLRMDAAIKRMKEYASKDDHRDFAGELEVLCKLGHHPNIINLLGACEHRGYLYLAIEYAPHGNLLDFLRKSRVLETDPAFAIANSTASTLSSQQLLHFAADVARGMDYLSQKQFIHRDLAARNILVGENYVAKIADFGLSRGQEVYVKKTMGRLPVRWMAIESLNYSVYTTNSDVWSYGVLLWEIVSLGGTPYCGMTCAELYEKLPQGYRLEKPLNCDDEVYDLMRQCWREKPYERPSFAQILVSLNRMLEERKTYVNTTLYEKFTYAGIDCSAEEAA
In short: as §2

Itk = biological target: T8, Itk (Homo sapiens, UniProt Q08881); assay: Kinase inhibition assay (33P transfer), Itk; conditions: read-out: Itk-1
T8 construct: Kinases are expressed as either kinase domains or full length constructs; made in house
T8 sequence (Q08881 1-620): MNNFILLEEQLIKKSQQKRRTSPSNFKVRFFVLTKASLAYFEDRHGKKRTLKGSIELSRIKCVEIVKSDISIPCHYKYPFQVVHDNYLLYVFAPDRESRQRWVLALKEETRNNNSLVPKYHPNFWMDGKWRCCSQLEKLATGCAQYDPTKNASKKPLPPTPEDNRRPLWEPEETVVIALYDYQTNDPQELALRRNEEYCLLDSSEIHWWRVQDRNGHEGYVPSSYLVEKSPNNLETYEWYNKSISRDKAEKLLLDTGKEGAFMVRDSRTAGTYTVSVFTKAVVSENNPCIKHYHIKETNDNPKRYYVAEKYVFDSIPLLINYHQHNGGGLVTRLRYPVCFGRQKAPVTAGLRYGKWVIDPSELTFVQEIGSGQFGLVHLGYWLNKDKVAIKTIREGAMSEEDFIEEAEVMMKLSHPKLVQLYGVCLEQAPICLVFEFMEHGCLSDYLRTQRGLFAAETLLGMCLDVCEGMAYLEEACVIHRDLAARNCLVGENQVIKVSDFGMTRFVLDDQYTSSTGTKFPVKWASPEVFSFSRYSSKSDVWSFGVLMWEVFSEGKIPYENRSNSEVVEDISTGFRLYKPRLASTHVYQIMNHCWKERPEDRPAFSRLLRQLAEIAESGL
In short: as §2

IC50 (Zap-70) [µM]	IC50 (EGFR) [µM]	IC50 (Lck) [µM]	IC50 (AKT) [µM]	IC50 (Kdr) [µM]	IC50 (c-Met) [µM]	IC50 (Tek) [µM]	IC50 (Itk) [µM]	IC50 (Zap-70; Table 3) [µM]	IC50 (Lck; Table 3) [µM]	IC50 (Kdr; Table 3) [µM]	IC50 (Itk; Table 3) [µM]	SMILES
> 11.4	6.07 to 8.85	< 1.01	> 11.4	< 1.01	> 11.4	8.85 to 11.4	1.01 to 6.07					COc1cc(Nc2ncnc(Nc3ccc(C(C)=O)cc3)n2)cc(OC)c1OC [Compound 698]
	1.08 to 6.48		6.48 to 9.45		1.08 to 6.48	1.08 to 6.48		9.45 to 12.1	1.08 to 6.48	1.08 to 6.48	1.08 to 6.48	Nc1nc2ccccc2n1-c1ncnc(Nc2ccc(-c3cnco3)cc2)n1 [Compound 438]
> 11.6	1.03 to 6.2	> 11.6	> 11.6	1.03 to 6.2	> 11.6	> 11.6	> 11.6					Nc1nc2ccccc2n1-c1ncnc(Nc2ccc(OC(F)(F)F)cc2)n1 [Compound 647]
	15.1 to 19.5		> 19.5		> 19.5	> 19.5		15.1 to 19.5	> 19.5	10.4 to 15.1	> 19.5	Nc1ncnc(Nc2ccc3c(c2)OCO3)n1 [Compound 1025]
> 10	0.892 to 5.35	0.892 to 5.35	> 10	0.892 to 5.35	5.35 to 7.8	5.35 to 7.8	5.35 to 7.8					CC(C)(C)OC(=O)NCc1cccc(Nc2ncnc(Nc3cc(-c4ccco4)n[nH]3)n2)c1 [Compound 985]
1.05 to 6.33	1.05 to 6.33	1.05 to 6.33	1.05 to 6.33	1.05 to 6.33	1.05 to 6.33	1.05 to 6.33	9.22 to 11.9					Nc1nc2ccccc2n1-c1ncnc(Nc2ccc(-c3ccccc3)cc2)n1 [Compound 480]
9.4 to 12.1	> 12.1	> 12.1	> 12.1	> 12.1	> 12.1	6.45 to 9.4	> 12.1					O=c1[nH]c2ccccc2n1-c1ncnc(Nc2ccc(C(F)(F)F)cc2)n1 [Compound 505]
> 13.5	> 13.5	> 13.5	> 13.5	1.2 to 7.18	> 13.5	> 13.5	> 13.5					COc1ccc(Nc2ncnc(-n3c(N)nc4ccccc43)n2)cn1 [Compound 648]
	1.08 to 6.46		1.08 to 6.46		> 12.1	9.42 to 12.1		> 12.1	1.08 to 6.46	< 1.08	9.42 to 12.1	O=c1[nH]c2ccccc2n1-c1ncnc(Nc2cccc(-c3cnco3)c2)n1 [Compound 418]
	> 11.4		> 11.4		> 11.4	> 11.4		> 11.4	6.07 to 8.85	1.01 to 6.07	> 11.4	COc1cc(Nc2ncnc(-n3ccc4ccc(F)cc43)n2)cc(OC)c1OC [Compound 464]
